The target of one assay is T1, DGKα (Homo sapiens, UniProt P23743).
T1 construct: His; purchased Signal Chem D21-10BH
Nature of the assay: In vitro DGKα inhibition assay (ADP-Glo). It is filed as biochemical. As to conditions: His-tagged human recombinant DGKα 0.1 nM, 50 μM ATP, 20 μM DLG, 90 minute incubation. In outline:
(§1)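 His-tagged human DGKα (0.1 nM, 50 μM ATP) or DGKζ (0.4 nM, 30 μM ATP), each with 20 μM DLG lipid substrate, in Tris pH 7.5 buffer with Mg2+, Ca2+, CHAPS.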

In another assay the target is T2, DGKζ (Homo sapiens, UniProt Q13574).
T2 construct: His; purchased Signal Chem D30-10H
T2 sequence (Q13574 whole entry): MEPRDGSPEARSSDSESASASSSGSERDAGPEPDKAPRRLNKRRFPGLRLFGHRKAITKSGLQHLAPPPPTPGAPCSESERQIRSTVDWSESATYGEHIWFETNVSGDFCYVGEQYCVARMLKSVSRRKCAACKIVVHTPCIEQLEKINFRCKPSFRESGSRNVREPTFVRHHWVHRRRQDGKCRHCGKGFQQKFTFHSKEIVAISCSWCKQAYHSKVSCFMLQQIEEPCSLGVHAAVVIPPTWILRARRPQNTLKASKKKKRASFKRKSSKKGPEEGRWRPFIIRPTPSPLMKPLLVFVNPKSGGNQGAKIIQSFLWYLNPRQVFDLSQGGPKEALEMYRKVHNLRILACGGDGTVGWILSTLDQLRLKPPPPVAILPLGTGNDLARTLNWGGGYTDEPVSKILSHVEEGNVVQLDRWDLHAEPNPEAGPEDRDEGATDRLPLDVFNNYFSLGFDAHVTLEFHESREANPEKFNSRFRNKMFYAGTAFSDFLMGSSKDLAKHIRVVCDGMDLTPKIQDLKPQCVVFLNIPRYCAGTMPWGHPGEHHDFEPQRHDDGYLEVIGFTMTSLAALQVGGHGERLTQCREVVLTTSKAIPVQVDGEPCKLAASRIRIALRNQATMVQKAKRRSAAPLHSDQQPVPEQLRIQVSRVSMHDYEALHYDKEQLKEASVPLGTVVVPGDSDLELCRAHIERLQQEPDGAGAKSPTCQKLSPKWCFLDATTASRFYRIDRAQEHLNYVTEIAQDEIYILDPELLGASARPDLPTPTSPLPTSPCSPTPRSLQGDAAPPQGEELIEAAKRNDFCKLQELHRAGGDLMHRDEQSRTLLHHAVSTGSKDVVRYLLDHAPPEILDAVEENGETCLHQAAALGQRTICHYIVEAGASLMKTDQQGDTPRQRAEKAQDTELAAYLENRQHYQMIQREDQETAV
Nature of the assay: In vitro DGKζ inhibition assay (ADP-Glo). It is filed as biochemical. As to conditions: His-tagged human recombinant DGKζ 0.4 nM, 30 μM ATP, 20 μM DLG, 90 minute incubation. The procedure, abridged:
as §1
In general terms: ADP-Glo turns the ADP formed in a reaction into a luminescent signal.

Usually IC50 stands for the concentration that gives 50% inhibition.

Molecules are shown by their SMILES.

T1 sequence (P23743 whole entry): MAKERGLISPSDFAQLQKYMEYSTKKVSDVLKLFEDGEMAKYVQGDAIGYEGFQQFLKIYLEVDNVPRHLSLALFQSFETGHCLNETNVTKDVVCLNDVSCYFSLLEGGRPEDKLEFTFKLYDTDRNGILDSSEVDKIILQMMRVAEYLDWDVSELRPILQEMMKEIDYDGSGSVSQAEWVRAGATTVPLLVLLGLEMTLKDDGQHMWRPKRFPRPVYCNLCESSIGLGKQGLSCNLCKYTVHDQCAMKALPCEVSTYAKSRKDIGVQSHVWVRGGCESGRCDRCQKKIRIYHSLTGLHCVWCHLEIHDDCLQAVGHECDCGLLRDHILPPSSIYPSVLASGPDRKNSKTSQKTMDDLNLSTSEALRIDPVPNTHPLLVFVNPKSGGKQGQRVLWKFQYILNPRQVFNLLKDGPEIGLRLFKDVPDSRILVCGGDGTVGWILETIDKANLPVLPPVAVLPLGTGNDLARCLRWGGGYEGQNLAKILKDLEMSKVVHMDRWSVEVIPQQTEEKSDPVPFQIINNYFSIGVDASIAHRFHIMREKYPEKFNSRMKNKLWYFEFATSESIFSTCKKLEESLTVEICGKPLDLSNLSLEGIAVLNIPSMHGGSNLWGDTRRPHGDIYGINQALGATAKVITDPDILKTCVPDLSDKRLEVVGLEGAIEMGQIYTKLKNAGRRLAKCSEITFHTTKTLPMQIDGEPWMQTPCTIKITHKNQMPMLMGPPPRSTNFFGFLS

Regarding `CC(c1ccc(C(F)(F)F)cc1)N1C[C@H](C)N(c2nc3nncn3c3c2ncn3C[C@@H]2CCCO2)C[C@H]1C` (stereo partly drawn) [Example 68, 4-((2S,5R)-2,5-Dimethyl-4-(1-(4-(trifluoromethyl)phenyl)ethyl)piperazin-1-yl)-1-(((S)-tetrahydrofuran-2-yl)methyl)-1H-[1,2,4]triazolo[3,4-b]purine], the concentration for half-maximal inhibition (IC50) at DGKα and on DGKζ was under 20 nM each time.

In the case of `Cc1nc2c(N3C[C@@H](C)N(Cc4ccc(C(F)(F)F)cc4F)C[C@@H]3C)cc3nncn3c2n1C[C@@H]1CCCO1` [Example 69, 4-((2S,5R)-4-(2-Fluoro-4-(trifluoromethyl)benzyl)-2,5-dimethylpiperazin-1-yl)-2-methyl-1-(((S)-tetrahydrofuran-2-yl)methyl)-1H-imidazo[4,5-e][1,2,4]triazolo[4,3-a]pyridine], the IC50 on DGKα and on DGKζ was under 20 nM throughout.

Consider `Cc1nc2c(N3C[C@@H](C)N(Cc4ccc(Cl)cc4)C[C@@H]3C)nc3nncn3c2n1C[C@@H]1CCCO1` [Example 70, 4-((2S,5R)-4-(4-Chlorobenzyl)-2,5-dimethylpiperazin-1-yl)-2-methyl-1-(((S)-tetrahydrofuran-2-yl)methyl)-1H-[1,2,4]triazolo[3,4-b]purine], for which the concentration for half-maximal inhibition (IC50) at DGKα and on DGKζ was under 20 nM in each case.

Regarding `Cc1nc2c(N3C[C@@H](C)N(Cc4ccc(Cl)cc4F)C[C@@H]3C)nc3nncn3c2n1C[C@@H]1CCCO1` [Example 71, 4-((2S,5R)-4-(4-Chloro-2-fluorobenzyl)-2,5-dimethylpiperazin-1-yl)-2-methyl-1-(((S)-tetrahydrofuran-2-yl)methyl)-1H-[1,2,4]triazolo[3,4-b]purine], the half-maximal inhibitory concentration (IC50) on DGKα and on DGKζ was under 20 nM in each case.

For `Cc1nc2c(N3C[C@@H](C)N(Cc4ccc(Cl)c(Cl)c4)C[C@@H]3C)nc3nncn3c2n1C[C@@H]1CCCO1` [Example 72, 4-((2S,5R)-4-(3,4-Dichlorobenzyl)-2,5-dimethylpiperazin-1-yl)-2-methyl-1-(((S)-tetrahydrofuran-2-yl)methyl)-1H-[1,2,4]triazolo[3,4-b]purine], the 50% inhibitory concentration (IC50) at DGKα and on DGKζ was under 20 nM throughout.

Consider `Cc1nc2c(N3C[C@@H](C)N(Cc4c(F)cc(Cl)cc4F)C[C@@H]3C)nc3nncn3c2n1C[C@@H]1CCCO1` [Example 73, 4-((2S,5R)-4-(4-Chloro-2,6-difluorobenzyl)-2,5-dimethylpiperazin-1-yl)-2-methyl-1-(((S)-tetrahydrofuran-2-yl)methyl)-1H-[1,2,4]triazolo[3,4-b]purine], for which the half-maximal inhibitory concentration (IC50) on DGKα and at DGKζ was under 20 nM throughout.

For `Cc1nc2c(N3C[C@@H](C)N(Cc4cc(F)c(Cl)c(C(F)(F)F)c4)C[C@@H]3C)nc3nncn3c2n1C[C@@H]1CCCO1` [Example 74, 4-((2S,5R)-4-(4-Chloro-3-fluoro-5-(trifluoromethyl)benzyl)-2,5-dimethylpiperazin-1-y1)-2-methyl-1-(((S)-tetrahydrofuran-2-yl)methyl)-1H-[1,2,4]triazolo[3,4-b]purine], the IC50 on DGKα and on DGKζ was under 20 nM each time.

As for `Cc1nc2c(N3C[C@@H](C)N(Cc4ccc(C(F)(F)F)c(F)c4)C[C@@H]3C)nc3nncn3c2n1C[C@@H]1CCCO1` [Example 75, 4-((2S,5R)-4-(3-Fluoro-4-(trifluoromethyl)benzyl)-2,5-dimethylpiperazin-1-yl)-2-methyl-1-(((S)-tetrahydrofuran-2-yl)methyl)-1H-[1,2,4]triazolo[3,4-b]purine], the concentration for half-maximal inhibition (IC50) at DGKα and on DGKζ was under 20 nM throughout.

As for `Cc1nc2c(N3C[C@@H](C)N(Cc4ccc(Cl)c(F)c4)C[C@@H]3C)nc3nncn3c2n1C[C@@H]1CCCO1` [Example 76, 4-((2S,5R)-4-(4-Chloro-3-fluorobenzyl)-2,5-dimethylpiperazin-1-yl)-2-methyl-1-(((S)-tetrahydrofuran-2-yl)methyl)-1H-[1,2,4]triazolo[3,4-b]purine], the IC50 on DGKα and at DGKζ was under 20 nM in each case.

`C[C@@H]1CN(c2nc3nncn3c3c2ncn3C[C@@H]2CCCO2)[C@@H](C)CN1Cc1ccc(Cl)c(F)c1` [Example 77, 4-((2S,5R)-4-(4-Chloro-3-fluorobenzyl)-2,5-dimethylpiperazin-1-yl)-1-(((S)-tetrahydrofuran-2-yl)methyl)-1H-[1,2,4]triazolo[3,4-b]purine]: the half-maximal inhibitory concentration (IC50) on DGKα and on DGKζ was under 20 nM in each case.

For the compound `CC[C@@H]1CN(c2nc3nncn3c3c2nc(C)n3C[C@@H]2CCCO2)[C@@H](C)CN1C(c1ccc(Cl)cc1)C1CC(F)(F)C1` (stereo partly drawn) [Example 78, 4-((2S,5R)-4-((4-Chlorophenyl)(3,3-difluorocyclobutyl)methyl)-5-ethyl-2-methylpiperazin-1-yl)-2-methyl-1-(((S)-tetrahydrofuran-2-yl)methyl)-1H-[1,2,4]triazolo[3,4-b]purine], the IC50 on DGKα and at DGKζ was under 20 nM throughout.

On to `Cc1nc2c(N3C[C@@H](C)N(C(c4cc(F)c(Cl)cc4F)C4CC(F)(F)C4)C[C@@H]3C)nc3nncn3c2n1C[C@@H]1CCCO1` (stereo partly drawn) [Example 79, 4-((2S,5R)-4-((4-Chloro-2,5-difluorophenyl)(3,3-difluorocyclobutyl)methyl)-2,5-dimethylpiperazin-1-yl)-2-methyl-1-(((S)-tetrahydrofuran-2-yl)methyl)-1H-[1,2,4]triazolo[3,4-b]purine], for which the IC50 on DGKα and at DGKζ was under 20 nM in each case.

Consider `Cc1nc2c(N3C[C@@H](C)N(C(c4ccc(Cl)c(F)c4F)C4CC(F)(F)C4)C[C@@H]3C)nc3nncn3c2n1C[C@@H]1CCCO1` (stereo partly drawn) [Example 80, 4-((2S,5R)-4-((4-Chloro-2,3-difluorophenyl)(3,3-difluorocyclobutyl)methyl)-2,5-dimethylpiperazin-1-yl)-2-methyl-1-(((S)-tetrahydrofuran-2-yl)methyl)-1H-[1,2,4]triazolo[3,4-b]purine], for which the concentration for half-maximal inhibition (IC50) at DGKα and at DGKζ was under 20 nM in each case.

Consider `Cc1nc2c(N3C[C@H]4CC[C@@H](C3)N4C(c3ccc(C(F)(F)F)cc3)C3CC(F)(F)C3)nc3nncn3c2n1C[C@@H]1CCCO1` (stereo partly drawn) [Example 81, 4-((1R,5S)-8-((3,3-Difluorocyclobutyl)(4-(trifluoromethyl)phenyl)methyl)-3,8-diazabicyclo[3.2.1]octan-3-yl)-2-methyl-1-(((S)-tetrahydrofuran-2-yl)methyl)-1H-[1,2,4]triazolo[3,4-b]purine], for which the IC50 on DGKα and on DGKζ was under 20 nM in each case.

For `Cc1nc2c(N3C[C@H]4CC[C@@H](C3)N4C(c3ccc(F)cc3)c3ccc(F)cc3)nc3nncn3c2n1C[C@@H]1CCCO1` [Example 82, 4-((1R,5S)-8-(Bis(4-fluorophenyl)methyl)-3,8-diazabicyclo[3.2.1]octan-3-yl)-2-methyl-1-(((S)-tetrahydrofuran-2-yl)methyl)-1H-[1,2,4]triazolo[3,4-b]purine], the concentration for half-maximal inhibition (IC50) at DGKα and at DGKζ was under 20 nM throughout.

In the case of `CC(C)[C@@H](c1ccc2cc(C(F)(F)F)ccc2n1)N1C[C@H](C)N(c2nc3nncn3c3c2ncn3C[C@@H]2CCCO2)C[C@H]1C` [Example 83, 4-((2S,5R)-2,5-Dimethyl-4-((S)-2-methyl-1-(6-(trifluoromethyl)quinolin-2-yl)propyl)piperazin-1-yl)-1-(((S)-tetrahydrofuran-2-yl)methyl)-1H-[1,2,4]triazolo[3,4-b]purine], the IC50 on DGKα is 20 to 200 nM; at DGKζ, under 20 nM.

On to `CC(C)[C@H](c1ccc2cc(C(F)(F)F)ccc2n1)N1C[C@H](C)N(c2nc3nncn3c3c2ncn3C[C@@H]2CCCO2)C[C@H]1C` [Example 84, 4-((2S,5R)-2,5-dimethyl-4-((R)-2-methyl-1-(6-(trifluoromethyl)quinolin-2-yl)propyl)piperazin-1-yl)-1-(((S)-tetrahydrofuran-2-yl)methyl)-1H-[1,2,4]triazolo[3,4-b]purine], for which the IC50 on DGKα and at DGKζ was under 20 nM each time.

For `CC[C@@H](c1ccc(Cl)cc1)N1C[C@H](C)N(c2nc3nncn3c3c2nc(C)n3C[C@@H]2CCCO2)C[C@H]1C` [Example 85, 4-((2S,5R)-4-((S)-1-(4-Chlorophenyl)propyl)-2,5-dimethylpiperazin-1-yl)-2-methyl-1-(((S)-tetrahydrofuran-2-yl)methyl)-1H-[1,2,4]triazolo[3,4-b]purine], the half-maximal inhibitory concentration (IC50) at DGKα and at DGKζ was under 20 nM in each case.

In the case of `CC[C@H](c1ccc(Cl)cc1)N1C[C@H](C)N(c2nc3nncn3c3c2nc(C)n3C[C@@H]2CCCO2)C[C@H]1C` [Example 86, 4-((2S,5R)-4-((R)-1-(4-chlorophenyl)propyl)-2,5-dimethylpiperazin-1-yl)-2-methyl-1-(((S)-tetrahydrofuran-2-yl)methyl)-1H-[1,2,4]triazolo[3,4-b]purine], the concentration for half-maximal inhibition (IC50) on DGKα and at DGKζ was under 20 nM in each case.

For `CC(c1ccc(Cl)c(F)c1)N1C[C@H](C)N(c2nc3nncn3c3c2ncn3C[C@@H]2CCCO2)C[C@H]1C` (stereo partly drawn) [Example 88, 4-((2S,5R)-4-(1-(4-Chloro-3-fluorophenyl)ethyl)-2,5-dimethylpiperazin-1-yl)-1-(((S)-tetrahydrofuran-2-yl)methyl)-1H-[1,2,4]triazolo[3,4-b]purine], the IC50 on DGKα is 20 to 200 nM; on DGKζ, under 20 nM.

Consider `CC[C@@H](c1ccc(C(F)(F)F)cc1)N1C[C@H](C)N(c2nc3nncn3c3c2nc(C)n3C[C@@H]2CCCO2)C[C@H]1C` [Example 89, 4-((2S,5R)-2,5-Dimethyl-4-((S)-1-(4-(trifluoromethyl)phenyl)propyl)piperazin-1-yl)-2-methyl-1-(((S)-tetrahydrofuran-2-yl)methyl)-1H-[1,2,4]triazolo[3,4-b]purine], for which the concentration for half-maximal inhibition (IC50) at DGKα and at DGKζ was under 20 nM each time.

The values above are taken from patent US20250179083A1, “TRICYCLIC TRIAZOLO COMPOUNDS AS DGK INHIBITORS” (Incyte Corporation, priority 2023, published 2025).
